Earlier results, collected in patent US8753875B2, “Compositions and means for diagnosing microbial infections” (priority 2007, dated 2014).
Where two headings read alike, the source gives them in different places.

Tests used:
E. coli [1] = conditions: cited from earlier work
E. coli [2] = conditions: 1142 E. coli outpatient urinary isolates, USA and Canada; cited from earlier work

Molecule | Antimicrobial resistance of E. coli (resistance in percent) (E. coli [1]; Austria, n 126) [%] | Antimicrobial resistance of E. coli (resistance in percent) (E. coli [1]; Belgium, n 137) [%] | Antimicrobial resistance of E. coli (resistance in percent) (E. coli [1]; Canada, n 166) [%] | Antimicrobial resistance of E. coli (resistance in percent) (E. coli [1]; Denmark, n 85) [%] | Antimicrobial resistance of E. coli (resistance in percent) (E. coli [1]; Finland, n 182) [%] | Antimicrobial resistance of E. coli (resistance in percent) (E. coli [1]; France, n 199) [%] | Antimicrobial resistance of E. coli (resistance in percent) (E. coli [1]; Germany, n 138) [%] | Antimicrobial resistance of E. coli (resistance in percent) (E. coli [1]; Greece, n 132) [%] | Antimicrobial resistance of E. coli (resistance in percent) (E. coli [1]; Ireland, n 154) [%] | Antimicrobial resistance of E. coli (resistance in percent) (E. coli [1]; Luxembourg, n 24) [%] | Antimicrobial resistance of E. coli (resistance in percent) (E. coli [1]; Norway, n 168) [%] | Antimicrobial resistance of E. coli (resistance in percent) (E. coli [1]; Portugal, n 86) [%] | Antimicrobial resistance of E. coli (resistance in percent) (E. coli [1]; Spain, n 191) [%] | Antimicrobial resistance of E. coli (resistance in percent) (E. coli [1]; Sweden, n 193) [%] | Antimicrobial resistance of E. coli (resistance in percent) (E. coli [1]; Switzerland, n 122) [%] | Antimicrobial resistance of E. coli (resistance in percent) (E. coli [1]; The Netherlands, n 195) [%] | Antimicrobial resistance of E. coli (resistance in percent) (E. coli [1]; Total, n 2478) [%] | Antimicrobial resistance of E. coli (resistance in percent) (E. coli [1]; United Kingdom, n 180) [%] | Overall resistance in E. coli (E. coli [2]) [%]
Cc1cc(NS(=O)(=O)c2ccc(N)cc2)no1 [SUL, 4-amino-N-(5-methylisoxazol-3-yl)-benzenesulfonamide] | 25.4 | 32.8 | 25.3 | 21.2 | 15.4 | 31.7 | 34.8 | 19.7 | 40.3 | 25.0 | 25.0 | 44.2 | 48.7 | 16.6 | 31.1 | 25.6 | 29.1 | 31.7 | –
co-amoxiclav [AMC] | 2.4 | 2.9 | 3.6 | 1.2 | 4.9 | 1.5 | 2.2 | 0.8 | 5.8 | 0 | 3.6 | 9.3 | 4.2 | 5.7 | 2.5 | 2.6 | 3.4 | 2.8 | –
CC1=C(C(=O)O)N2C(=O)C(NC(=O)C(N)c3ccc(O)cc3)C2SC1 (stereo not shown) [CFR, 8-[2-amino-2-(4-hydroxyphenyl)-acetyl]amino-4-methyl-7-oxo-2-thia-6-azabicyclo [4.2.0] oct-4-ene-5-carboxylic acid] | 0.8 | 0.7 | 1.8 | 1.2 | 1.6 | 1.0 | 1.4 | 3.0 | 0.6 | 0 | 2.4 | 2.3 | 3.1 | 5.2 | 0.8 | 4.6 | 2.1 | 1.7 | –
C[C@H]1COc2c(N3CCN(C)CC3)c(F)cc3c(=O)c(C(=O)O)cn1c23 [levofloxacin, (−)-(S)-9-fluoro-2,3-dihydro-3-methyl-10-(4-methyl-1-piperazinyl)-7-oxo-7H-pyrido [1,2,3-de]-1,4-benzoxazine-6-carboxylic acid] | – | – | – | – | – | – | – | – | – | – | – | – | – | – | – | – | – | – | 5.1
